Laboratory results reported in patent publication EP4389751A1, “HETEROCYCLIC COMPOUNDS AND USES THEREOF” (Kumquat Biosciences Inc., priority 2021, dated 2024).
pIC50: −log10 of the molar value. Like-named read-outs stand apart in the source and are kept apart here.

Columns and labels:
GP2D cells = test: Cell proliferation assay (CellTiter-Glo), K-Ras G12D cells; format: cell-based; conditions: GP2D cells (K-Ras G12D); read-out: Inhibition of GP2D Cells (IC50)
Method in brief: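 CellTiter-Glo luminescence, taken roughly 5 days after dosing, measured growth of G12D-mutant GP2D cells in DMEM/2 mM glutamine/10% FBS. Compound dilution series (e.g., 9 points, 3-fold) added the day after plating. Four-parameter fitting gave IC50.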

A549 cells = test: Cell proliferation assay (CellTiter-Glo), K-Ras G12S cells; format: cell-based; conditions: for pIC50: Homo sapiens, A549, A549 cells (K-Ras G12S), read-out: Inhibition of A549 Cells (IC50); for ratio of IC50 against a G12D cell line to IC50 against a G12S cell line: K-Ras G12D cell line such as GP2D relative to K-Ras G12S cell line such as A549, greater than 1, 2, 3, 4, 5, 10, 15 or even greater, 8640 min
Experimental: A549 (ATCC CRL-185) and LS123 (ATCC CRL-255) cell lines comprise a G12S mutation and can be used to assess Ras cellular signaling in vitro, e.g., in response to the compounds herein. A549 culture medium is prepared with RPMI-1640 and 10% heat-inactivated FBS. LS123 culture medium is prepared with RPMI-1640 and 10% heat-inactivated FBS. A CellTiter-Glo (CTG) luminescent based assay (Promega) is used to assess growth of the cells, as a measurement of the ability of the compounds herein to inhibit Ras signaling in the cells. The cells (e.g., 800 per well) are seeded in their respective culture medium in standard tissue culture-treated 384-well format plates (Falcon #08-772-116) or ultra-low attachment surface 384-well format plates (S-Bio # MS-9384WZ). The day after plating, cells are treated with a dilution series (e.g., a 10 point 3-fold dilution series) of the compounds herein (e.g., approximately 40 µl final volume per well). Cell viability can be monitored (e.g., approximately 6 days later) according to the manufacturer's recommended instructions, where the CellTiter-Glo reagent is added (e.g., approximately 10 µl), vigorously mixed, covered, and placed on a plate shaker (e.g., approximately for 20 min) to ensure sufficient cell lysis prior to assessment of luminescent signal. The IC50 values are determined using the four parameter fit. The resulting IC50 value is a measurement of the ability of the compounds herein to reduce cell growth of Ras-driven cells (e.g., tumor cell lines) in vitro and/or in vivo.

K-Ras G12S = target: T1, K-Ras G12S (Homo sapiens, UniProt P01116, G12S); test: HTRF assay of the K-Ras / SOS1 interaction; format: biochemical; conditions: IC50 (against K-Ras G12D) to IC50 (against K-Ras G12S)
T1 construct: made in house; host or cells: E. coli (e.g., BL21 (DE3))
Method in brief: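 Compounds (duplicates, 10 µM to 0.01 µM) were incubated ≥~10 min with Eu-labelled GST-K-Ras G12S and XL665-labelled His-hSOS1 in HEPES pH 7.4 buffer containing NaCl, DTT, BSA and Igepal. Disruption measured as HTRF emission ratio 665/620 nm, fitted to IC50.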

[1] = target: T2, KRAS protein (His-tagged GDP-loaded G12S 1-169) (Homo sapiens, UniProt P01116, G12S); test: Covalent modification of KRAS protein, intact-protein LC-MS; format: binding; conditions: 24hrs at room temperature, KRAS protein ~2 µM
T2 construct: His-tagged GDP-loaded G12S 1-169
Method in brief: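 Percent covalent modification derives from deconvoluted intact-mass intensities of compound-adducted versus unmodified KRAS, measured by LC-ESI-MS. Before analysis, ~2 µM GDP-loaded His-KRAS 1-169 was exposed to compound for 24 h at room temperature and acidified with formic acid.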

`N#Cc1c(N)sc2c(F)ccc(-c3c(Cl)cc4c(N5CC6CCC(C5)N6C(=O)n5ccnc5)nc(OC[C@@]56CCCN5C[C@H](F)C6)nc4c3F)c12` [Compound A105, 4-(4-(8-(1H-imidazole-1-carbonyl)-3,8-diazabicyclo[3.2.1]octan-3-yl)-6-chloro-8-fluoro-2-(((2R,7aS)-2-fluorotetrahydro-1H-pyrrolizin-7a(5H)-yl)methoxy)quinazolin-7-yl)-2-amino-7-fluorobenzo[b]thiophene-3-carbonitrile] gave a pIC50 (GP2D cells) of no less than 6.00 and a pIC50 (A549 cells; bin ≤ 500 nM) of no less than 6.30.
In the case of `N#Cc1c(N)sc2c(F)ccc(-c3c(Cl)cc4c(N5CCC6CN(C(=O)Nc7ncccn7)CCC65)nc(OC[C@@]56CCCN5C[C@H](F)C6)nc4c3F)c12` (stereo partly drawn) [Compound A251, 1-(7-(2-amino-3-cyano-7-fluorobenzo[b]thiophen-4-yl)-6-chloro-8-fluoro-2-(((2R,7aS)-2-fluorotetrahydro-1H-pyrrolizin-7a(5H)-yl)methoxy)quinazolin-4-yl)-N-(pyrimidin-2-yl)octahydro-5H-pyrrolo[3,2-c]pyridine-5-carboxamide], the pIC50 (GP2D cells) was 5.00 to 6.00, the pIC50 (A549 cells; bin ≤ 500 nM) was no less than 6.30 and the “ratio of IC50 against a G12D cell line to IC50 against a G12S cell line” value (A549 cells) was “greater than 1”.
Compound `C#Cc1c(F)ccc2cc(O)cc(-c3ncc4c(N5CC6CCC(C5)N6C(=O)n5cc(C#N)cn5)nc(OC[C@@]56CCCN5C[C@H](F)C6)nc4c3F)c12` [Compound A143, 1-(3-(7-(8-ethynyl-7-fluoro-3-hydroxynaphthalen-1-yl)-8-fluoro-2-(((2R,7aS)-2-fluorotetrahydro-1H-pyrrolizin-7a(5H)-yl)methoxy)pyrido[4,3-d]pyrimidin-4-yl)-3,8-diazabicyclo[3.2. 1]octane-8-carbonyl)-1H-pyrazole-4-carbonitrile] has a pIC50 (GP2D cells) of no less than 6.00 and a pIC50 (A549 cells; bin ≤ 500 nM) of no less than 6.30.
For `Nc1nc2c(-c3c(Cl)cc4c(N5CC6CN(C(=O)n7cncn7)C6C5)nc(OC[C@@]56CCCN5C[C@H](F)C6)nc4c3F)ccc(F)c2s1` (stereo partly drawn) [Compound A177, (3-(7-(2-amino-7-fluorobenzo[d]thiazol-4-yl)-6-chloro-8-fluoro-2-(((2R,7aS)-2-fluorotetrahydro-1H-pyrrolizin-7a(5H)-yl)methoxy)quinazolin-4-yl)-3,6-diazabicyclo[3.2.0]heptan-6-yl)(1H-1,2,4-triazol-1-yl)methanone], the pIC50 (GP2D cells) was no less than 6.00 and the pIC50 (A549 cells; bin 500 nM to 5 µM) was 5.30 to 6.30.
For `Cc1nc(C(C)C)nn1C(=O)N1CC2(CCCCN(c3nc(OC[C@@]45CCCN4C[C@H](F)C5)nc4c(F)c(-c5ccc(F)c6sc(N)c(C#N)c56)c(Cl)cc34)C2)C1` [Compound A305, 2-amino-4-(6-chloro-8-fluoro-2-(((2R,7aS)-2-fluorotetrahydro-1H-pyrrolizin-7 a(5H)-yl)methoxy)-4-(2-(3-isopropyl-5-methyl-1H-1,2,4-triazole-1-carbonyl)-2,6-diazaspiro[3.6]decan-6-yl)quinazolin-7-yl)-7-fluorobenzo[b]thiophene-3-carbonitrile], the pIC50 (GP2D cells) was 5.00 to 6.00, the pIC50 (A549 cells; bin ≤ 500 nM) was no less than 6.30 and the “ratio of IC50 against a G12D cell line to IC50 against a G12S cell line” value (A549 cells) was “greater than 1”.
With `N#Cc1c(N)sc2c(F)ccc(-c3c(Cl)cc4c(N5CC6CN(C(=O)n7cncn7)C6C5)nc(OC[C@@]56CCCN5C[C@H](F)C6)nc4c3F)c12` (stereo partly drawn) [Compound A306, 4-(4-(6-(1H-1,2,4-triazole-1-carbonyl)-3,6-diazabicyclo[3.2.0]heptan-3-yl)-6-chloro-8-fluoro-2-(((2R,7aS)-2-fluorotetrahydro-1H-pyrrolizin-7a(5H)-yl)methoxy)quinazolin-7-yl)-2-amino-7-fluorobenzo[b]thiophene-3-carbonitrile] the pIC50 (GP2D cells) was no less than 6.00 and the pIC50 (A549 cells; bin 500 nM to 5 µM) was 5.30 to 6.30.
In the case of `N#Cc1c(N)sc2c(F)ccc(-c3c(Cl)cc4c(N5CCC6CN(C(=O)Nc7ncccn7)CCC65)nc(OC[C@@]56CCCN5C[C@H](F)C6)nc4c3F)c12` (single isomer, unassigned) [Compound A271], the “Ratio of IC50 KRAS G12D vs. IC50 KRAS G12S” value (K-Ras G12S) was “A (A: indicates that the ratio of IC50 against KrasG12D vs. IC50 against KrasG12S is 1-fold or greater)” and the pIC50 (A549 cells; bin 500 nM to 5 µM) was 5.30 to 6.30.
With `Cc1nc(C)n(C(=O)N2CC3(CCCCN(c4nc(OC[C@@]56CCCN5C[C@H](F)C6)nc5c(F)c(-c6ccc(F)c7sc(N)c(C#N)c67)c(Cl)cc45)C3)C2)n1` [Compound A116, 2-amino-4-(6-chloro-4-(2-(3,5-dimethyl-1H-1,2,4-triazole-1-carbonyl)-2,6-diazaspiro[3.6]decan-6-yl)-8-fluoro-2-(((2R,7aS)-2-fluorotetrahydro-1H-pyrrolizin-7a(5H)-yl)methoxy)quinazolin-7-yl)-7-fluorobenzo[b]thiophene-3-carbonitrile] the pIC50 (GP2D cells) was no less than 6.00 and the pIC50 (A549 cells; bin ≤ 500 nM) was no less than 6.30.
Work on `N#Cc1cnn(C(=O)N2C3CCC2CN(c2nc(OC[C@@]45CCCN4C[C@H](F)C5)nc4c(F)c(-c5ccc(F)c6sc(N)nc56)c(Cl)cc24)C3)c1` [Compound A253, 1-(3-(7-(2-amino-7-fluorobenzo[d]thiazol-4-yl)-6-chloro-8-fluoro-2-(((2R,7aS)-2-fluorotetrahydro-1H-pyrrolizin-7a(5H)-yl)methoxy)quinazolin-4-yl)-3,8-diazabicyclo[3.2. 1]octane-8-carbonyl)-1H-pyrazole-4-carbonitrile] yielded a pIC50 (GP2D cells) of no less than 6.00 and a pIC50 (A549 cells; bin 500 nM to 5 µM) of 5.30 to 6.30.
`Cc1ncn(C(=O)N2CC3CN(c4nc(OC[C@@]56CCCN5C[C@H](F)C6)nc5c(F)c(-c6ccc(F)c7sc(N)c(C#N)c67)c(Cl)cc45)CC32)n1` (stereo partly drawn) [Compound A196, 2-amino-4-(6-chloro-8-fluoro-2-(((2R,7aS)-2-fluorotetrahydro-1H-pyrrolizin-7 a(5H)-yl)methoxy)-4-(6-(3-methyl-1H-1,2,4-triazole-1-carbonyl)-3,6-diazabicyclo[3.2.0]heptan-3-yl)quinazolin-7-yl)-7-fluorobenzo[b]thiophene-3-carbonitrile] showed a pIC50 (GP2D cells) of no less than 6.00 and a pIC50 (A549 cells; bin ≤ 500 nM) of no less than 6.30.
In the case of `N#Cc1c(N)sc2c(F)ccc(-c3c(Cl)cc4c(N5CC6CCC(C5)N6C(=O)Nc5ncccn5)nc(OC[C@@]56CCCN5C[C@H](F)C6)nc4c3F)c12` [Compound A215, 3-(7-(2-amino-3-cyano-7-fluorobenzo[b]thiophen-4-yl)-6-chloro-8-fluoro-2-(((2R,7aS)-2-fluorotetrahydro-1H-pyrrolizin-7a(5H)-yl)methoxy)quinazolin-4-yl)-N-(pyrimidin-2-yl)-3,8-diazabicyclo[3.2. 1]octane-8-carboxamide], the pIC50 (GP2D cells) was no less than 6.00 and the pIC50 (A549 cells; bin ≤ 500 nM) was no less than 6.30.
In the case of `Nc1nc2c(-c3c(Cl)cc4c(N5CCC6(CN(C(=O)n7cncn7)C6)C5)nc(OC[C@@]56CCCN5C[C@H](F)C6)nc4c3F)ccc(F)c2s1` [Compound A201, (6-(7-(2-amino-7-fluorobenzo[d]thiazol-4-yl)-6-chloro-8-fluoro-2-(((2R,7aS)-2-fluorotetrahydro-1H-pyrrolizin-7a(5H)-yl)methoxy)quinazolm-4-yl)-2,6-diazaspiro[3.4]octan-2-yl)(1H-1,2,4-triazol-1-yl)methanone], the pIC50 (GP2D cells) was 5.00 to 6.00, the “Ratio of IC50 KRAS G12D vs. IC50 KRAS G12S” value (K-Ras G12S) was “A (A: indicates that the ratio of IC50 against KrasG12D vs. IC50 against KrasG12S is 1-fold or greater)” and the “% G12S Modification at 24 hr.” value [1] was “+++ (+++ indicates greater than 20% labelling)”.
With `N#Cc1c(N)sc2c(F)ccc(-c3c(Cl)cc4c(N5CC6OCCN(C(=O)n7cncn7)C6C5)nc(OC[C@@]56CCCN5C[C@H](F)C6)nc4c3F)c12` (stereo partly drawn) [Compound A227, 4-(4-(4-(1H-1,2,4-triazole-1-carbonyl)hexahydropyrrolo[3,4-b][1,4]oxazin-6(2H)-yl)-6-chloro-8-fluoro-2-(((2R,7aS)-2-fluorotetrahydro-1H-pyrrolizin-7a(5H)-yl)methoxy)quinazolin-7-yl)-2-amino-7-fluorobenzo[b]thiophene-3-carbonitrile] the pIC50 (GP2D cells) was 5.00 to 6.00, the “Ratio of IC50 KRAS G12D vs. IC50 KRAS G12S” value (K-Ras G12S) was “A (A: indicates that the ratio of IC50 against KrasG12D vs. IC50 against KrasG12S is 1-fold or greater)” and the “% G12S Modification at 24 hr.” value [1] was “+++ (+++ indicates greater than 20% labelling)”.
